In a melting point compilation (Tetko et al.; mined from patent text by program, amines drawn as free bases though some values may be those of a salt) one finds melting point data, which are given here for 85 compounds.

The melting point is the temperature of the solid-liquid transition. Turning to `O=C(Oc1ccc(OC(=O)c2ccc(O)c(O)c2)c2ccccc12)c1ccc(O)c(O)c1`, the melting point came out at 261 °C. For `O=C(Cn1c(-c2ccc3c(c2)OCO3)nc2ccccc21)c1ccccc1` the value was 186 to 189 °C. For `COC(=O)COC(=O)COc1ccc(N)cc1` the value was 76.5 to 78.5 °C; for `O=C1O[C@@H](CO)CN1c1ccc(I)c(F)c1`, 116 to 117 °C. For `CCN(CC)CCNC(=S)NC(=O)c1ccccc1` the value was 54 to 56 °C; for `CCN(CC)c1ccc(C2(N(c3ccc(NC(C)=O)cc3)c3ccc(NC(C)=O)cc3)OC(=O)c3ccccc32)c(C)c1` (stereo not given), 179 to 182 °C. The compound `Cc1c(-c2ccccc2)oc2c(C(=O)NCCCN3CCC(n4c(=O)[nH]c5ccccc54)CC3)cccc2c1=O` gave a melting point of 238 to 241 °C.

Compound `Cc1cc(C)cc(-c2nc(N)sc2-c2ccncc2)c1` yielded a melting point of 242 to 244 °C. For `Cc1ccc2c(c1)-n1ccc3c1=C(CCC=3)c1nccn1-2` the value was 175 °C. With `CC(C)=NOCc1nc2c(N)nc(C)c(C)c2n1CCCCN(C(N)=O)C1CCCCC1`, the melting point was in the range of 210 to 212 °C. For `Cc1nnc(-c2ccc3occ(C(=O)O)c3c2)o1` the value was 252 to 253 °C; for `Cc1oc(-c2ccccc2)nc1COc1ccc(COc2ccc3ccccc3c2CCC(=O)O)cc1`, 161 to 162 °C. The figure for `CC(OC(=O)C1(C(=O)O)Oc2ccc(C[C@@H](C)NC[C@H](O)c3cccc(Cl)c3)cc2O1)c1ccccc1` (stereo not given in full) is 71 to 79 °C; for `CCOC(=O)CCC(=O)c1cc(-c2ccccc2)nc2ccccc12` it is 66 °C. For `Cn1cc(-c2cccc(N3CCc4c(sc5c4CCCC5)C3=O)c2CO)cc(Nc2ccc(C3CNC3)cn2)c1=O` the value was 140 to 142 °C; for `C[C@]1(COc2ccc(N3CCC(CCOCc4ccc(OC(F)(F)F)cc4)CC3)cc2)Cn2cc([N+](=O)[O-])nc2O1`, 205 to 207 °C. For `O=C(NNC(=O)C(F)(F)F)c1ccccc1`, the melting point lay in the range of 153 to 154 °C. For `COCOc1c(Cl)ccc(-c2cc(NC(C)=O)c(Cl)c(C(=O)OC)n2)c1F` the value was 146 °C. For `CC(C)(C)c1cccc(S(=O)(=O)n2c(Cc3ccc(-c4n[nH]c(=O)o4)cc3)cc3cc(C(F)(F)F)ccc32)c1` the value was 92 °C. Compound `COCC1CN(c2ccc3ccc(O)cc3c2)C(=O)O1` (stereo not given) yielded a melting point of 155 to 157 °C. For `CC[C@H]1C(=O)N([Si](C)(C)C(C)(C)C)[C@H]1C(=O)C=[N+]=[N-]` the value was 88 to 89 °C; for `c1ccc(-c2ccc(COc3ccc4c(c3)CCC(CCn3ccnc3)C4)cc2)cc1` (stereo not given), 145 to 146 °C. For `CN1CCN(c2cccc3ccc(OC(=O)c4ccccc4)cc23)CC1` the value was 82 to 82.5 °C; for `Cc1c(-c2ccccc2)n(Cc2ccccc2)c2ccc(-c3ccc(OCC(=O)O)cc3)cc12`, 174 to 175 °C. The figure for `O=C(NCCO[N+](=O)[O-])Oc1ccccc1` is 61 to 62 °C; for `CN1CCC(OC2c3ccccc3CCn3c2nc(-c2ccc(C(=O)OC(C)(C)C)cc2)c3C#N)CC1` (stereo not given) it is 95 °C; for `CC(=O)c1ccc(Cc2c(Cl)cc(NN=Cc3ccccc3)cc2Cl)cc1` it is 137 to 139 °C. In turn, `C=CCn1c(NCC(F)(F)F)nc(N2CCc3ccccc3CC2)c(C#N)c1=O` returned a melting point of 186 to 191 °C. The figure for `CCc1cc(-n2ccc(=O)cc2)c(S(C)(=O)=O)cc1C(=O)N=C(N)N` is 261 to 263 °C; for `N#Cc1c(OCC2CO2)cccc1[N+](=O)[O-]` (stereo not given) it is 131 to 135 °C; for `OCc1c2c(nn1-c1ccc(F)cc1)CCCCC2` it is 177 to 178 °C. The figure for `NC1CN(c2c(F)cc3c(=O)c(C(=O)O)cn(C4CC4)c3c2F)C1` is 214 to 216 °C; for `CCCCCCCCCCCc1[nH]c2cc(C(=O)OC)ccc2c1C=O` it is 147 to 149 °C; for `CCOC(=O)c1ncn2c1c(S)nc1ccccc12` it is 251 to 253 °C. The figure for `NC(=O)Cn1c(Cl)ccc1Cl` is 183 to 184 °C.

With `Cn1cc2c(n1)-c1sccc1N(C(=O)c1ccc(NC(=O)c3ccc(Cl)cc3Cl)cc1)CC2`, the melting point was in the range of 265 to 267 °C. The figure for `CCN(CC)Cc1cccc(-c2cc(OCc3ccccc3)c3cc(OC)ccc3n2)c1` is 89.2 to 89.5 °C; for `O=C1Nc2ccc(F)c(F)c2[C@@](C#CC2CC2)(C(F)(F)F)O[C@H]1C1CC1` (relative stereo) it is 222 °C; for `c1cc(-c2ccoc2)cc(-n2cnc3cc(-c4ccoc4)ccc32)c1` it is 149 to 150 °C.

The compound `CN(CCCCCCCNC(=NCCSCc1csc(NC(=N)N)n1)NC#N)CCN(Cc1ccc(F)cc1)c1ccccn1` gave a melting point of 118 °C. `CC1(C(=O)NC(CCC(=O)O)Cc2ccccc2)Cc2c([nH]c3ccccc23)CN1C(=O)OC1C2CC3CC(C2)CC1C3` (stereo not given) showed a melting point of 133 to 138 °C. For `CC(C)(c1ccccc1)n1nnc(-c2ccccc2-c2ccc(CO)cc2)n1` the value was 117 to 120 °C; for `CC(=O)NCCCCc1ccc(C(=O)C(C)Cl)cc1` (stereo not given), 66 to 67 °C; for `CCN1CCC(c2cc3ccc(C)cc3c(=O)[nH]2)CC1`, 239 to 241 °C. For `O=S(=O)(c1ccc(O)cc1)c1ncsc1-c1ccccc1` the value was 195 °C; for `COC(=O)c1ccccc1NC(=S)NN(C)C`, 149 to 152 °C; for `c1cc2[nH]ncc2cc1OC1CCCCC1`, 144 to 146 °C. The figure for `Nc1cc(CC(=O)O)cc(C(=O)O)c1` is 214 to 220 °C.

Take `c1ccc(Cc2ccccc2Cc2ccccc2)cc1`: the melting point was in the range of 61 to 67 °C.

Regarding `CC(Cc1cc(C(=O)c2ccccc2)ccc1OC(=O)C(C)(C)C)C(=O)O` (stereo not given), the melting point lay in the range of 119 to 120 °C.

Consider `COc1cc(N)c(Cl)cc1C(=O)NC1CCN(C(C)CC(C(=O)N(C)C)(c2ccccc2)c2ccccc2)CC1OC` (stereo not given), for which the melting point was 198 °C.

The compound `O=C1C=C(Nc2ccccc2)C(=O)c2nccnc21` returned a melting point of 203 to 205 °C.

`CCc1c2c(c(C)[nH]c1=O)CC(c1ccccn1)CC2` (stereo not given): the melting point amounted to 300 °C. For `CCOc1ccc2nc(Sc3ccc([N+](=O)[O-])c(N)c3)sc2c1` the value was 126 to 129 °C; for `CC1(C)OC(c2ccc(S(N)(=O)=O)cc2)=C(c2ccc3c(c2)OCO3)C1=O`, 178 to 179 °C; for `COCCCOc1cc(C[C@@H](C[C@H](N)[C@@H](O)C[C@H](C(=O)NCC(C)(C)C(N)=O)C(C)C)C(C)C)ccc1OC`, 95 to 104 °C. The figure for `COC(=O)c1ccc2c(c1)C=CC(=CCl)CO2` is 72 to 77 °C. Turning to `CC(=O)c1cc(NC(=O)NCCCC(C)CNC(=O)Nc2cc(C(C)=O)cc(C(C)=O)c2)cc(C(C)=O)c1` (stereo not given), the melting point worked out at 128 °C.

`COc1ccc(-c2cc(CO)c(=O)n(Cc3ccc(Cl)cc3)c2)cc1`: the melting point stood at 128 °C. For `Cc1cc2nccn2nc1OCC(C)(C)CCCCS(N)(=O)=O` the value was 169 to 170 °C. For `COc1cc(C)c2c(=O)c3c(C)c(Cl)ccc3oc2c1OC`, the melting point is 101 °C. `CCCc1c(C(=O)OCC)nc2c(CCC)c3oc(C(=O)OCC)cc(=O)c3cc2c1Cl`: the melting point lay within 145 to 147 °C. The figure for `CS(=O)CC(=O)c1ccon1` (stereo not given) is 164 to 166 °C; for `O=C(OC(c1ccc(Cl)cc1Cl)C(Oc1ccc(Cl)cc1)n1cncn1)c1ccc(Cl)cc1Cl` (stereo not given) it is 132 to 135 °C; for `CCC(O)(CC)[C@H](Nc1nnc(-c2c(OS(=O)(=O)C(F)(F)F)ccc3ccccc23)c2ccccc12)c1ccccc1` it is 117 to 119 °C. For `O=C(C=Cc1ccccc1Sc1ccc(Cl)cc1)N1CCCC1=O` the value was 144 to 147 °C. `CN1CC2CC1CN2C1=Nc2cc(Cl)ccc2Sc2ccccc21` (stereo not given) yielded a melting point of 62 to 64 °C. Turning to `Cc1cccc(COc2cccc(OCc3cnc4ccccc4n3)c2)c1C(=O)O`, the melting point was in the range of 57 to 60 °C. The figure for `Cc1ccc(OCC(CO)NC(C)(C)C)c(-c2ccc(=S)[nH]n2)c1` (stereo not given) is 130 °C; for `O=C(C1CCC1)N1CCSCC1` it is 39 to 40 °C; for `CC(C)(C)c1cc(SC(Sc2cc(C(C)(C)C)c(O)c(C(C)(C)C)c2)Sc2cc(C(C)(C)C)c(O)c(C(C)(C)C)c2)cc(C(C)(C)C)c1O` it is 217 to 220 °C. The figure for `CC(C(=O)O)c1ccc2ocnc2c1` (stereo not given) is 126 to 128 °C; for `CN(C)C(=O)Nc1ccc(OS(C)(=O)=O)c(Cl)c1` it is 130 to 132 °C; for `CNC[C@@H](O)c1cnccn1` it is 78 to 81 °C.

Take `COc1cccc(CNC(=O)COc2ccn3nc(-c4ccccc4)c(-c4ccc(=O)n(C(C)C)n4)c3c2)c1`: the melting point was 166 to 168 °C. The figure for `COC(=O)c1ccc(Cc2cc3cc(Cl)ccc3n2S(=O)(=O)c2ccc(C(C)C)cc2)cc1F` is 127 °C; for `CCCCc1nc2c(N)nc3ccccc3c2n1CCCCSc1ccc(F)cc1F` it is 122 to 126 °C; for `CN(c1nc(-c2cc3ccccc3[nH]c2=O)cs1)S(=O)(=O)c1cn(C)cn1` it is > 300 °C.

As to `CCc1cccc(CC(=O)O)c1OCCn1cc(CCOc2ncc(C(F)(F)F)cc2Cl)c(OC(C)C)n1`, the melting point was 76.5 to 77.5 °C.

Compound `CCn1c(-c2ccc(OC)c(OC)c2)cc(=Nc2c(C)cc(C)cc2C)n(C)c1=O` showed a melting point of 57 to 61 °C.

`Cn1c(OC2CCOC2)nn(C(=O)NS(=O)(=O)c2ccccc2OC(F)(F)F)c1=O` (stereo not given): the melting point was 184 °C. For `O=C(NN1CCN(Cc2c[nH]c3ccccc23)CC1)c1ccccc1` the value was 176 to 178 °C; for `NC(CCNCCC(N)=NO)=NO`, 180 °C.

`COCc1ccc(C(=O)OC)cn1` displayed a melting point of 33 °C.

The compound `Nc1cc(Br)ccc1C(=O)NCc1ccc(Br)cc1F` registered a melting point of 143 to 144 °C.
